Columns and labels:
[1] = target: GSPT1 (Homo sapiens, UniProt P15170+Q96SW2); test: HiBiT degradation assay, GSPT1, Procedure A; type: cell-based; design: HiBit-GSPT1 KI HEK293(LgBit) Cells; host or cells: HEK293(LgBit) knock-in cells; details: six hours
Method in brief: (§1)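 DC50 and Ymin (% remaining) were derived by four-parameter fitting of luminescence data. The data come from a six-hour, 37° C compound exposure of cells in DMEM/10% FBS over a ten-point range, 10 μM to 0.005 μM, followed by Nano-Glo HiBiT lytic detection.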

[2] = target: T1, CK1α (Homo sapiens, UniProt P48729+Q96SW2); test: HiBiT degradation assay, CK1α, Procedure A; type: cell-based; details: six hours
T1 construct: CSNK1A1-HiBit KI HEK293(LgBit) Cells; host or cells: HEK293(LgBit) knock-in cells
Method in brief: as §1

Sequence of GSPT1 (P15170 whole entry): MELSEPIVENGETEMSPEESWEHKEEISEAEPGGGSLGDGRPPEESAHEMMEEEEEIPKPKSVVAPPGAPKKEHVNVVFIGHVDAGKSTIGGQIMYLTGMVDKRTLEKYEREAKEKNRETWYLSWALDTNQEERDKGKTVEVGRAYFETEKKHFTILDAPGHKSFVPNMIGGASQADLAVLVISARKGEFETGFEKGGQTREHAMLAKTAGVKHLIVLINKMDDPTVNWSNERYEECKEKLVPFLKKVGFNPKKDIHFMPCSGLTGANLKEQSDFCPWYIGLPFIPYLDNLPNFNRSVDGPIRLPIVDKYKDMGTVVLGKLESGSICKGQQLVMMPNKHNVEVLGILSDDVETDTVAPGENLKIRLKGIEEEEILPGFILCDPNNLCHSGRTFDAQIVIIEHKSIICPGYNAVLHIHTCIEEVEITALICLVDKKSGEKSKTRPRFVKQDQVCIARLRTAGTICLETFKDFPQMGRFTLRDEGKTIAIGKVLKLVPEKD
Sequence of GSPT1 (Q96SW2 whole entry): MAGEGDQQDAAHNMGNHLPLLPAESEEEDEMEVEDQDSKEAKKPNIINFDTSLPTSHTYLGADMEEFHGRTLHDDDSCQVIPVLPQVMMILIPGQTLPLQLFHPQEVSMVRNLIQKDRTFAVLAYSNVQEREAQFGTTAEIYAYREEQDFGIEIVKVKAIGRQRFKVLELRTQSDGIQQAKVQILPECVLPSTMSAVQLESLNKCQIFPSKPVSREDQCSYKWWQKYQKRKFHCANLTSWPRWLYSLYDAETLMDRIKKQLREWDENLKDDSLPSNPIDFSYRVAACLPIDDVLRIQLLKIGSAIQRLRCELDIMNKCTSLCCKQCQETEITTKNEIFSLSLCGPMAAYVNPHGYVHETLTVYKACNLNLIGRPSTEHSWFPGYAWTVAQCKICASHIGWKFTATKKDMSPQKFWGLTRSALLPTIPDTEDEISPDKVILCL
Sequence of GSPT1 (Q16531 whole entry partner): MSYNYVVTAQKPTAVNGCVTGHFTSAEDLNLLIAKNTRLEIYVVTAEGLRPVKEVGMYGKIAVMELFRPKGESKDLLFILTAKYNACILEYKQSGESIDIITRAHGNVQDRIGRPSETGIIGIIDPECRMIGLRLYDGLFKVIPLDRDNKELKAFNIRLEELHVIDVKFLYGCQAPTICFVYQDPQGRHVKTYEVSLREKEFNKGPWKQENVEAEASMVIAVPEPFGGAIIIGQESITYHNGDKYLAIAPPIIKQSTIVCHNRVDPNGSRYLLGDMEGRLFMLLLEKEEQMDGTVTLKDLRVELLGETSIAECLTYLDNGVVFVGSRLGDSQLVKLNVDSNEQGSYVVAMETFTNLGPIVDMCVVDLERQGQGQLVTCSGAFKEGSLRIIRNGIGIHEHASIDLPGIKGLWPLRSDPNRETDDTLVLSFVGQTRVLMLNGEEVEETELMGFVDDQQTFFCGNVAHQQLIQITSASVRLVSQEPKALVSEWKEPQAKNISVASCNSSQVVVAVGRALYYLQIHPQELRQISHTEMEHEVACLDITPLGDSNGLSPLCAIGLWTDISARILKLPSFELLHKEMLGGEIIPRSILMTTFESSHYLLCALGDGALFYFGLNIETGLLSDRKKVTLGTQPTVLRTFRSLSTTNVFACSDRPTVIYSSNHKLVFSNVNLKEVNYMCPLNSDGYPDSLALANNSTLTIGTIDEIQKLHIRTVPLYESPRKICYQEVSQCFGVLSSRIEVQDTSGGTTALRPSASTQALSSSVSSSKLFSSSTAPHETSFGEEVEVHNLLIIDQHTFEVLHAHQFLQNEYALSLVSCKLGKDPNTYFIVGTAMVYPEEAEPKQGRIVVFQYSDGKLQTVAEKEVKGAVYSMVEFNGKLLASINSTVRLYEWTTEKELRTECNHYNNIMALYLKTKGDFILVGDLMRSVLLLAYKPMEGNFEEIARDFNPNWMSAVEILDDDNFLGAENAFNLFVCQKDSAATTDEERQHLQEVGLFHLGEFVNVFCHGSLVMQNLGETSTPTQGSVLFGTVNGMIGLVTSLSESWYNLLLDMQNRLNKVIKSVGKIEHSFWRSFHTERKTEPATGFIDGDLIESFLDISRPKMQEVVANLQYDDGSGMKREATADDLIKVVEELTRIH
T1 sequence (P48729 whole entry): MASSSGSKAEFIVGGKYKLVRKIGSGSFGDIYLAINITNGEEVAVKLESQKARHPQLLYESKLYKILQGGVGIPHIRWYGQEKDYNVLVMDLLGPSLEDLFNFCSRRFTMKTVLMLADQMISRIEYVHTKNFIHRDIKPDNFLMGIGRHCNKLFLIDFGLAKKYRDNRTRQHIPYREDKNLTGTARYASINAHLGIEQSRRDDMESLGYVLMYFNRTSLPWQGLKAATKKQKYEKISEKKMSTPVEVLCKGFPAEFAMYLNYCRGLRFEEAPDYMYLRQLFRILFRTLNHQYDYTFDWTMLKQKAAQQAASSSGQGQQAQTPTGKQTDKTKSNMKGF
T1 sequence (Q96SW2 whole entry): as the sequence (Q96SW2 whole entry) above
T1 sequence (Q16531 whole entry partner): as the sequence (Q16531 whole entry partner) above

COc1ccc(-c2c(-c3ccc4c(c3)CN(C3CCC(=O)NC3=O)C4=O)cnn2C)cn1 (stereo not drawn) [Example 378]
DC50 [1]: ≥ 25 nM | GSPT1 Ymin [1]: F (F = >75-100% remaining) | CK1α Ymin [2]: E (E = >25-75% remaining) | DC50 [2]: < 25 nM

Cn1ncc(-c2ccc3c(c2)CN(C2CCC(=O)NC2=O)C3=O)c1-c1cc2ccccc2[nH]1 (stereo not drawn) [Example 380]
DC50 [1]: ≥ 25 nM | GSPT1 Ymin [1]: F (F = >75-100% remaining) | CK1α Ymin [2]: E (E = >25-75% remaining) | DC50 [2]: < 25 nM

Cn1ncc(-c2ccc3c(c2)CN(C2CCC(=O)NC2=O)C3=O)c1-c1ccc2occc2c1 (stereo not drawn) [Example 381]
DC50 [1]: ≥ 25 nM | GSPT1 Ymin [1]: F (F = >75-100% remaining) | CK1α Ymin [2]: D (D = >10- 25% remaining) | DC50 [2]: < 25 nM

Cn1ncc(-c2ccc3c(c2)CN(C2CCC(=O)NC2=O)C3=O)c1-c1ccc2nccn2c1 (stereo not drawn) [Example 382]
DC50 [1]: ≥ 25 nM | GSPT1 Ymin [1]: F (F = >75-100% remaining) | CK1α Ymin [2]: D (D = >10- 25% remaining) | DC50 [2]: ≥ 25 nM

Cn1ncc(-c2ccc3c(c2)CN(C2CCC(=O)NC2=O)C3=O)c1-c1cnn2ccccc12 (stereo not drawn) [Example 383]
DC50 [1]: ≥ 25 nM | GSPT1 Ymin [1]: F (F = >75-100% remaining) | CK1α Ymin [2]: E (E = >25-75% remaining) | DC50 [2]: < 25 nM

CC(C)Cn1cc(-c2c(-c3ccc4c(c3)CN(C3CCC(=O)NC3=O)C4=O)cnn2C)cn1 (stereo not drawn) [Example 384]
DC50 [1]: < 25 nM | GSPT1 Ymin [1]: F (F = >75-100% remaining) | CK1α Ymin [2]: E (E = >25-75% remaining) | DC50 [2]: ≥ 25 nM

Cn1ncc(-c2ccc3c(c2)CN(C2CCC(=O)NC2=O)C3=O)c1-c1ccc2cccnc2c1 (stereo not drawn) [Example 385]
DC50 [1]: ≥ 25 nM | GSPT1 Ymin [1]: F (F = >75-100% remaining) | CK1α Ymin [2]: E (E = >25-75% remaining) | DC50 [2]: < 25 nM

Cn1ncc(-c2ccc3c(c2)CN(C2CCC(=O)NC2=O)C3=O)c1-c1ccc2ccn(C)c2c1 (stereo not drawn) [Example 386]
DC50 [1]: ≥ 25 nM | GSPT1 Ymin [1]: F (F = >75-100% remaining) | CK1α Ymin [2]: E (E = >25-75% remaining) | DC50 [2]: < 25 nM

Cn1ncc(-c2ccc3c(c2)CN(C2CCC(=O)NC2=O)C3=O)c1-c1ccc2c(ccn2C)c1 (stereo not drawn) [Example 387]
DC50 [1]: ≥ 25 nM | GSPT1 Ymin [1]: F (F = >75-100% remaining) | CK1α Ymin [2]: D (D = >10- 25% remaining) | DC50 [2]: < 25 nM

Cn1ncc(-c2ccc3c(c2)CN(C2CCC(=O)NC2=O)C3=O)c1-c1cnn(CC(F)F)c1 (stereo not drawn) [Example 388]
DC50 [1]: ≥ 25 nM | GSPT1 Ymin [1]: F (F = >75-100% remaining) | CK1α Ymin [2]: E (E = >25-75% remaining) | DC50 [2]: ≥ 25 nM

Cn1ncc(-c2ccc3c(c2)CN(C2CCC(=O)NC2=O)C3=O)c1-c1ccc2cnn(C)c2c1 (stereo not drawn) [Example 389]
DC50 [1]: ≥ 25 nM | GSPT1 Ymin [1]: F (F = >75-100% remaining) | CK1α Ymin [2]: E (E = >25-75% remaining) | DC50 [2]: < 25 nM

Cn1ncc(-c2ccc3c(c2)CN(C2CCC(=O)NC2=O)C3=O)c1-c1cnc2c(ccn2C)c1 (stereo not drawn) [Example 390]
DC50 [1]: ≥ 25 nM | GSPT1 Ymin [1]: F (F = >75-100% remaining) | CK1α Ymin [2]: F (F = >75-100% remaining) | DC50 [2]: < 25 nM

Cc1nc2ccc(-c3c(-c4ccc5c(c4)CN(C4CCC(=O)NC4=O)C5=O)cnn3C)cc2[nH]1 (stereo not drawn) [Example 391]
DC50 [1]: ≥ 25 nM | GSPT1 Ymin [1]: F (F = >75-100% remaining) | CK1α Ymin [2]: C (C = 0-10% remaining) | DC50 [2]: ≥ 25 nM

Cn1ncc(-c2ccc3c(c2)CN(C2CCC(=O)NC2=O)C3=O)c1-c1ccc2scnc2c1 (stereo not drawn) [Example 392]
DC50 [1]: ≥ 25 nM | GSPT1 Ymin [1]: F (F = >75-100% remaining) | CK1α Ymin [2]: E (E = >25-75% remaining) | DC50 [2]: < 25 nM

Cn1ncc(-c2ccc3c(c2)CN(C2CCC(=O)NC2=O)C3=O)c1-c1ccc2ncsc2c1 (stereo not drawn) [Example 393]
DC50 [1]: ≥ 25 nM | GSPT1 Ymin [1]: F (F = >75-100% remaining) | CK1α Ymin [2]: D (D = >10- 25% remaining) | DC50 [2]: < 25 nM

Cn1ncc(-c2ccc3c(c2)CN(C2CCC(=O)NC2=O)C3=O)c1-c1cnc2sccc2c1 (stereo not drawn) [Example 394]
DC50 [1]: ≥ 25 nM | GSPT1 Ymin [1]: F (F = >75-100% remaining) | CK1α Ymin [2]: E (E = >25-75% remaining) | DC50 [2]: ≥ 25 nM

Cn1ncc(-c2ccc3c(c2)CN(C2CCC(=O)NC2=O)C3=O)c1-c1cnn(-c2ccccc2)c1 (stereo not drawn) [Example 395]
DC50 [1]: < 25 nM | GSPT1 Ymin [1]: E (E = >25-75% remaining) | CK1α Ymin [2]: F (F = >75-100% remaining) | DC50 [2]: < 25 nM

Cn1ncc(-c2ccc3c(c2)CN(C2CCC(=O)NC2=O)C3=O)c1-c1ccn(-c2ccc(F)cc2)n1 (stereo not drawn) [Example 396]
DC50 [1]: ≥ 25 nM | GSPT1 Ymin [1]: F (F = >75-100% remaining) | CK1α Ymin [2]: E (E = >25-75% remaining) | DC50 [2]: < 25 nM

Cc1ccc(-c2c(-c3ccc4c(c3)CN(C3CCC(=O)NC3=O)C4=O)ncn2C)cn1 (stereo not drawn) [Example 397]
DC50 [1]: ≥ 25 nM | GSPT1 Ymin [1]: F (F = >75-100% remaining) | CK1α Ymin [2]: D (D = >10- 25% remaining) | DC50 [2]: ≥ 25 nM

Cc1cc(-c2c(-c3ccc4c(c3)CN(C3CCC(=O)NC3=O)C4=O)ncn2C)ccn1 (stereo not drawn) [Example 398]
DC50 [1]: < 25 nM | GSPT1 Ymin [1]: F (F = >75-100% remaining) | CK1α Ymin [2]: D (D = >10- 25% remaining) | DC50 [2]: < 25 nM

Cn1cnc(-c2ccc3c(c2)CN(C2CCC(=O)NC2=O)C3=O)c1-c1cccc(C#N)n1 (stereo not drawn) [Example 399]
DC50 [1]: ≥ 25 nM | GSPT1 Ymin [1]: F (F = >75-100% remaining) | CK1α Ymin [2]: D (D = >10- 25% remaining) | DC50 [2]: < 25 nM

Cn1cnc(-c2ccc3c(c2)CN(C2CCC(=O)NC2=O)C3=O)c1-c1ccc(=O)n(C)c1 (stereo not drawn) [Example 400]
DC50 [1]: ≥ 25 nM | GSPT1 Ymin [1]: F (F = >75-100% remaining) | CK1α Ymin [2]: D (D = >10- 25% remaining) | DC50 [2]: ≥ 25 nM

Cn1cnc(-c2ccc3c(c2)CN(C2CCC(=O)NC2=O)C3=O)c1-c1ccc2nc[nH]c2c1 (stereo not drawn) [Example 401]
DC50 [1]: ≥ 25 nM | GSPT1 Ymin [1]: E (E = >25-75% remaining) | CK1α Ymin [2]: C (C = 0-10% remaining) | DC50 [2]: < 25 nM

Cn1cnc(-c2ccc3c(c2)CN(C2CCC(=O)NC2=O)C3=O)c1-c1ccc2scnc2c1 (stereo not drawn) [Example 402]
DC50 [1]: ≥ 25 nM | GSPT1 Ymin [1]: F (F = >75-100% remaining) | CK1α Ymin [2]: E (E = >25-75% remaining) | DC50 [2]: < 25 nM

Cn1cnc(-c2ccc3c(c2)CN(C2CCC(=O)NC2=O)C3=O)c1-c1ccc(N2CCCCC2)nc1 (stereo not drawn) [Example 403]
DC50 [1]: ≥ 25 nM | GSPT1 Ymin [1]: F (F = >75-100% remaining) | CK1α Ymin [2]: D (D = >10- 25% remaining) | DC50 [2]: < 25 nM

Cn1cnc(-c2ccc3c(c2)CN(C2CCC(=O)NC2=O)C3=O)c1-c1ccc(N2CCOCC2)nc1 (stereo not drawn) [Example 404]
DC50 [1]: ≥ 25 nM | GSPT1 Ymin [1]: F (F = >75-100% remaining) | CK1α Ymin [2]: E (E = >25-75% remaining) | DC50 [2]: ≥ 25 nM

Cn1cnc(-c2ccc3c(c2)CN(C2CCC(=O)NC2=O)C3=O)c1-c1cncc(OCc2ccccc2)c1 (stereo not drawn) [Example 405]
DC50 [1]: < 25 nM | GSPT1 Ymin [1]: F (F = >75-100% remaining) | CK1α Ymin [2]: F (F = >75-100% remaining) | DC50 [2]: < 25 nM

Cn1cnc(-c2ccc3c(c2)CN(C2CCC(=O)NC2=O)C3=O)c1-c1cnn(Cc2ccccc2)c1 (stereo not drawn) [Example 406]
DC50 [1]: < 25 nM | GSPT1 Ymin [1]: E (E = >25-75% remaining) | CK1α Ymin [2]: D (D = >10- 25% remaining) | DC50 [2]: ≥ 25 nM

Cc1c(-c2c(-c3ccc4c(c3)CN(C3CCC(=O)NC3=O)C4=O)ncn2C)cnn1-c1ccccc1 (stereo not drawn) [Example 407]
DC50 [1]: ≥ 25 nM | GSPT1 Ymin [1]: E (E = >25-75% remaining) | CK1α Ymin [2]: C (C = 0-10% remaining) | DC50 [2]: < 25 nM

CN1CCN(c2cccc(-c3c(-c4ccc5c(c4)CN(C4CCC(=O)NC4=O)C5=O)ncn3C)c2)CC1 (stereo not drawn) [Example 408]
DC50 [1]: ≥ 25 nM | CK1α Ymin [2]: E (E = >25-75% remaining) | DC50 [2]: < 25 nM

Cn1ncc(-c2ccc3c(c2)CN(C2CCC(=O)NC2=O)C3=O)c1-c1cccc(CCCCCCc2ccccc2)c1 (stereo not drawn) [Example 409]
DC50 [1]: ≥ 25 nM | GSPT1 Ymin [1]: F (F = >75-100% remaining) | CK1α Ymin [2]: E (E = >25-75% remaining) | DC50 [2]: ≥ 25 nM

CCOC(=O)Cc1cccc(-c2c(-c3ccc4c(c3)CN(C3CCC(=O)NC3=O)C4=O)cnn2C)c1 (stereo not drawn) [Example 410]
DC50 [1]: ≥ 25 nM | GSPT1 Ymin [1]: F (F = >75-100% remaining) | CK1α Ymin [2]: E (E = >25-75% remaining) | DC50 [2]: < 25 nM

COCCCOc1ccc(-c2c(-c3ccc4c(c3)CN(C3CCC(=O)NC3=O)C4=O)cnn2C)cc1 (stereo not drawn) [Example 411]
DC50 [1]: ≥ 25 nM | GSPT1 Ymin [1]: F (F = >75-100% remaining) | CK1α Ymin [2]: E (E = >25-75% remaining) | DC50 [2]: < 25 nM

Cn1ncc(-c2ccc3c(c2)CN(C2CCC(=O)NC2=O)C3=O)c1-c1cccc(N2CCNCC2)c1 (stereo not drawn) [Example 412]
DC50 [1]: ≥ 25 nM | GSPT1 Ymin [1]: F (F = >75-100% remaining) | CK1α Ymin [2]: E (E = >25-75% remaining) | DC50 [2]: ≥ 25 nM

Cn1ncc(-c2ccc3c(c2)CN(C2CCC(=O)NC2=O)C3=O)c1-c1ccc(C2CCNCC2)cc1 (stereo not drawn) [Example 413]
DC50 [1]: ≥ 25 nM | GSPT1 Ymin [1]: F (F = >75-100% remaining) | CK1α Ymin [2]: E (E = >25-75% remaining) | DC50 [2]: ≥ 25 nM

Cn1ncc(-c2ccc3c(c2)CN(C2CCC(=O)NC2=O)C3=O)c1-c1ccc(CN2CCNCC2)cc1 (stereo not drawn) [Example 414]
DC50 [1]: ≥ 25 nM | GSPT1 Ymin [1]: F (F = >75-100% remaining) | CK1α Ymin [2]: E (E = >25-75% remaining) | DC50 [2]: ≥ 25 nM

Cn1cc(-c2ccc3c(c2)CN(C2CCC(=O)NC2=O)C3=O)nc1C1OCCCO1 (stereo not drawn) [Example 415, 3-(5-(2-(1,3-dioxan-2-yl)-1-methyl-1H-imidazol-4-yl)-1-oxoisoindolin-2-yl) piperidine-2,6-dione]
DC50 [1]: ≥ 25 nM | GSPT1 Ymin [1]: F (F = >75-100% remaining) | CK1α Ymin [2]: E (E = >25-75% remaining) | DC50 [2]: < 25 nM
